{
  "source": "patent US11865098B1",
  "about": "“Methods and compositions for treating excessive sleepiness” (Axsome Malta Ltd., priority 2017, dated 2024)",
  "system": "patients with narcolepsy type 1 or type 2",
  "assay": "MWT, 12-week phase 3 study in narcolepsy",
  "assay_type": "in vivo, human",
  "settings": "mITT",
  "experimental": "The MWT is an objective test used to measure how alert a subject is during the day. The test consists of four sleep trials with two hours in between the trials. The first trial is performed 1.5-3 hours after the subject's normal wake-up time. Sensors are placed on the head, face, and chin to detect when the subject is asleep and awake during the test. The subject sits quietly in bed with his or her back and head supported by a pillow and is asked to sit still and look straight ahead while trying to stay awake as long as possible. Each trial lasts 40 minutes or until the subject is asleep for 90 seconds. Between trials, the subject stays out of bed and occupies himself or herself to remain awake. Falling asleep in an average of less than eight minutes is considered abnormal. About 40-60% of subjects with normal sleep stay awake for the entire 40 minutes of all four trials.\nThe study was a 12-week, double-blind, randomized, placebo-controlled, parallel-group study. Patients were randomized (1:1:1:1) to receive placebo or APC 75, 150, or 300 mg; randomization was stratified by the presence or absence of cataplexy.\nKey inclusion criteria included adults 18-75 years old, inclusive, with a diagnosis of narcolepsy type 1 or type 2 according to ICSD-3 (American Academy of Sleep Medicine. The International Classification of Sleep Disorders—Third Edition (ICSD-3). Darien, IL: American Academy of Sleep Medicine; 2014) or DSM-5 (American Psychiatric Association. Diagnostic and Statistical Manual of Mental Disorders Fifth Edition (DSM-5). Arlington, VA: American Psychiatric Association; 2013) criteria, baseline mean sleep latency <25 minutes on the first 4 trials of a 5-trial, 40-minute Maintenance of Wakefulness Test (MWT) and baseline Epworth Sleepiness Scale (ESS) (Johns, Sleep 14(6):540 (1991)) score ≥10, usual nightly total sleep time ≥6 hours, and body mass index between 18 and 45 kg/m^2.\nCo-primary endpoints were change from baseline to week 12 in MWT mean sleep latency and ESS score. The key secondary endpoint was the percentage of patients who reported improvement on the Patient Global Impression of Change (PGI-C) (Guy, ECDEU assessment manual for psychopharmacology, revised. US Department of Health, Education, and Welfare publication (ADM 76-338). Rockville, MD: National Institute of Mental Health; 1976) at week 12. Other secondary and exploratory endpoints included changes on function and quality-of-life and changes in the number of cataplexy attacks per week. Safety evaluation included adverse events, laboratory tests, and vital signs.\nEfficacy analyses were based on the modified intent-to-treat population (mITT), defined as all patients who were randomized, received at least 1 dose of study drug, and had baseline and at least 1 post-baseline evaluation of both MWT and ESS. MWT and ESS were analyzed using a mixed-effect repeated measures (MMRM) model. PGI-C was analyzed using a chi-square test. A fixed hierarchical testing procedure was used to correct for multiplicity, starting with the highest dose of APC for the co-primary endpoints and the key secondary endpoint; testing proceeded with each subsequent lower doses.",
  "data": [
    {"smiles": "NC(=O)OC[C@H](N)Cc1ccccc1", "note": "[JZP-110, (R)-2-amino-3-phenylpropyl carbamate]", "values": [
      {"measurement": "MWT mean sleep latency increase from baseline >=5 minutes, % of subjects", "setting": "75 mg, Week 1", "value": "(34.5) %"},
      {"measurement": "MWT mean sleep latency increase from baseline >=5 minutes, n subjects", "setting": "75 mg, Week 1", "value": 10},
      {"measurement": "MWT mean sleep latency increase from baseline >=10 minutes, % of subjects", "setting": "75 mg, Week 1", "value": "(24.1) %"},
      {"measurement": "MWT mean sleep latency increase from baseline >=10 minutes, n subjects", "setting": "75 mg, Week 1", "value": 7},
      {"measurement": "MWT mean sleep latency increase from baseline >=15 minutes, % of subjects", "setting": "75 mg, Week 1", "value": "(17.2) %"},
      {"measurement": "MWT mean sleep latency increase from baseline >=15 minutes, n subjects", "setting": "75 mg, Week 1", "value": 5},
      {"measurement": "MWT mean sleep latency increase from baseline >=20 minutes, % of subjects", "setting": "75 mg, Week 1", "value": "(10.3) %"},
      {"measurement": "MWT mean sleep latency increase from baseline >=20 minutes, n subjects", "setting": "75 mg, Week 1", "value": 3},
      {"measurement": "MWT mean sleep latency increase from baseline >=25 minutes, % of subjects", "setting": "75 mg, Week 1", "value": "(3.4) %"},
      {"measurement": "MWT mean sleep latency increase from baseline >=25 minutes, n subjects", "setting": "75 mg, Week 1", "value": 1},
      {"measurement": "MWT mean sleep latency increase from baseline >=30 minutes, n subjects", "setting": "75 mg, Week 1", "value": 0},
      {"measurement": "MWT mean sleep latency increase from baseline >=5 minutes, % of subjects", "setting": "75 mg, Week 4", "value": "(42.0) %"},
      {"measurement": "MWT mean sleep latency increase from baseline >=5 minutes, n subjects", "setting": "75 mg, Week 4", "value": 21},
      {"measurement": "MWT mean sleep latency increase from baseline >=10 minutes, % of subjects", "setting": "75 mg, Week 4", "value": "(24.0) %"},
      {"measurement": "MWT mean sleep latency increase from baseline >=10 minutes, n subjects", "setting": "75 mg, Week 4", "value": 12},
      {"measurement": "MWT mean sleep latency increase from baseline >=15 minutes, % of subjects", "setting": "75 mg, Week 4", "value": "(12.0) %"},
      {"measurement": "MWT mean sleep latency increase from baseline >=15 minutes, n subjects", "setting": "75 mg, Week 4", "value": 6},
      {"measurement": "MWT mean sleep latency increase from baseline >=20 minutes, % of subjects", "setting": "75 mg, Week 4", "value": "(6.0) %"},
      {"measurement": "MWT mean sleep latency increase from baseline >=20 minutes, n subjects", "setting": "75 mg, Week 4", "value": 3},
      {"measurement": "MWT mean sleep latency increase from baseline >=25 minutes, n subjects", "setting": "75 mg, Week 4", "value": 0},
      {"measurement": "MWT mean sleep latency increase from baseline >=30 minutes, n subjects", "setting": "75 mg, Week 4", "value": 0},
      {"measurement": "MWT mean sleep latency increase from baseline >=5 minutes, % of subjects", "setting": "75 mg, Week 12", "value": "(41.3) %"},
      {"measurement": "MWT mean sleep latency increase from baseline >=5 minutes, n subjects", "setting": "75 mg, Week 12", "value": 19},
      {"measurement": "MWT mean sleep latency increase from baseline >=10 minutes, % of subjects", "setting": "75 mg, Week 12", "value": "(19.6) %"},
      {"measurement": "MWT mean sleep latency increase from baseline >=10 minutes, n subjects", "setting": "75 mg, Week 12", "value": 9},
      {"measurement": "MWT mean sleep latency increase from baseline >=15 minutes, % of subjects", "setting": "75 mg, Week 12", "value": "(15.2) %"},
      {"measurement": "MWT mean sleep latency increase from baseline >=15 minutes, n subjects", "setting": "75 mg, Week 12", "value": 7},
      {"measurement": "MWT mean sleep latency increase from baseline >=20 minutes, % of subjects", "setting": "75 mg, Week 12", "value": "(8.7) %"},
      {"measurement": "MWT mean sleep latency increase from baseline >=20 minutes, n subjects", "setting": "75 mg, Week 12", "value": 4},
      {"measurement": "MWT mean sleep latency increase from baseline >=25 minutes, % of subjects", "setting": "75 mg, Week 12", "value": "(2.2) %"},
      {"measurement": "MWT mean sleep latency increase from baseline >=25 minutes, n subjects", "setting": "75 mg, Week 12", "value": 1},
      {"measurement": "MWT mean sleep latency increase from baseline >=30 minutes, n subjects", "setting": "75 mg, Week 12", "value": 0},
      {"measurement": "MWT mean sleep latency increase from baseline >=5 minutes, % of subjects", "setting": "150 mg, Week 1", "value": "(68.2) %"},
      {"measurement": "MWT mean sleep latency increase from baseline >=5 minutes, n subjects", "setting": "150 mg, Week 1", "value": 15},
      {"measurement": "MWT mean sleep latency increase from baseline >=10 minutes, % of subjects", "setting": "150 mg, Week 1", "value": "(50.0) %"},
      {"measurement": "MWT mean sleep latency increase from baseline >=10 minutes, n subjects", "setting": "150 mg, Week 1", "value": 11},
      {"measurement": "MWT mean sleep latency increase from baseline >=15 minutes, % of subjects", "setting": "150 mg, Week 1", "value": "(22.7) %"},
      {"measurement": "MWT mean sleep latency increase from baseline >=15 minutes, n subjects", "setting": "150 mg, Week 1", "value": 5},
      {"measurement": "MWT mean sleep latency increase from baseline >=20 minutes, % of subjects", "setting": "150 mg, Week 1", "value": "(9.1) %"},
      {"measurement": "MWT mean sleep latency increase from baseline >=20 minutes, n subjects", "setting": "150 mg, Week 1", "value": 2},
      {"measurement": "MWT mean sleep latency increase from baseline >=25 minutes, n subjects", "setting": "150 mg, Week 1", "value": 0},
      {"measurement": "MWT mean sleep latency increase from baseline >=30 minutes, n subjects", "setting": "150 mg, Week 1", "value": 0},
      {"measurement": "MWT mean sleep latency increase from baseline >=5 minutes, % of subjects", "setting": "150 mg, Week 4", "value": "(61.2) %"},
      {"measurement": "MWT mean sleep latency increase from baseline >=5 minutes, n subjects", "setting": "150 mg, Week 4", "value": 30},
      {"measurement": "MWT mean sleep latency increase from baseline >=10 minutes, % of subjects", "setting": "150 mg, Week 4", "value": "(42.9) %"},
      {"measurement": "MWT mean sleep latency increase from baseline >=10 minutes, n subjects", "setting": "150 mg, Week 4", "value": 21},
      {"measurement": "MWT mean sleep latency increase from baseline >=15 minutes, % of subjects", "setting": "150 mg, Week 4", "value": "(30.6) %"},
      {"measurement": "MWT mean sleep latency increase from baseline >=15 minutes, n subjects", "setting": "150 mg, Week 4", "value": 15},
      {"measurement": "MWT mean sleep latency increase from baseline >=20 minutes, % of subjects", "setting": "150 mg, Week 4", "value": "(16.3) %"},
      {"measurement": "MWT mean sleep latency increase from baseline >=20 minutes, n subjects", "setting": "150 mg, Week 4", "value": 8},
      {"measurement": "MWT mean sleep latency increase from baseline >=25 minutes, % of subjects", "setting": "150 mg, Week 4", "value": "(10.2) %"},
      {"measurement": "MWT mean sleep latency increase from baseline >=25 minutes, n subjects", "setting": "150 mg, Week 4", "value": 5},
      {"measurement": "MWT mean sleep latency increase from baseline >=30 minutes, n subjects", "setting": "150 mg, Week 4", "value": 0},
      {"measurement": "MWT mean sleep latency increase from baseline >=5 minutes, % of subjects", "setting": "150 mg, Week 12", "value": "(58.0) %"},
      {"measurement": "MWT mean sleep latency increase from baseline >=5 minutes, n subjects", "setting": "150 mg, Week 12", "value": 29},
      {"measurement": "MWT mean sleep latency increase from baseline >=10 minutes, % of subjects", "setting": "150 mg, Week 12", "value": "(48.0) %"},
      {"measurement": "MWT mean sleep latency increase from baseline >=10 minutes, n subjects", "setting": "150 mg, Week 12", "value": 24},
      {"measurement": "MWT mean sleep latency increase from baseline >=15 minutes, % of subjects", "setting": "150 mg, Week 12", "value": "(36.0) %"},
      {"measurement": "MWT mean sleep latency increase from baseline >=15 minutes, n subjects", "setting": "150 mg, Week 12", "value": 18},
      {"measurement": "MWT mean sleep latency increase from baseline >=20 minutes, % of subjects", "setting": "150 mg, Week 12", "value": "(18.0) %"},
      {"measurement": "MWT mean sleep latency increase from baseline >=20 minutes, n subjects", "setting": "150 mg, Week 12", "value": 9},
      {"measurement": "MWT mean sleep latency increase from baseline >=25 minutes, % of subjects", "setting": "150 mg, Week 12", "value": "(8.0) %"},
      {"measurement": "MWT mean sleep latency increase from baseline >=25 minutes, n subjects", "setting": "150 mg, Week 12", "value": 4},
      {"measurement": "MWT mean sleep latency increase from baseline >=30 minutes, % of subjects", "setting": "150 mg, Week 12", "value": "(2.0) %"},
      {"measurement": "MWT mean sleep latency increase from baseline >=30 minutes, n subjects", "setting": "150 mg, Week 12", "value": 1},
      {"measurement": "MWT mean sleep latency increase from baseline >=5 minutes, % of subjects", "setting": "300 mg, Week 1", "value": "(64.0) %"},
      {"measurement": "MWT mean sleep latency increase from baseline >=5 minutes, n subjects", "setting": "300 mg, Week 1", "value": 16},
      {"measurement": "MWT mean sleep latency increase from baseline >=10 minutes, % of subjects", "setting": "300 mg, Week 1", "value": "(56.0) %"},
      {"measurement": "MWT mean sleep latency increase from baseline >=10 minutes, n subjects", "setting": "300 mg, Week 1", "value": 14},
      {"measurement": "MWT mean sleep latency increase from baseline >=15 minutes, % of subjects", "setting": "300 mg, Week 1", "value": "(44.0) %"}
    ]}
  ]
}
